# Results taken from patent US20080070264A1, “Intracellular Signaling-Induced Ret-Independent Gdnf Receptor-Effected Morphological Changes” (JPMORGAN CHASE BANK N.A., priority 2003, published 2008).
# B1: ^125I-GDNF: GDNF enzymatically iodinated with [125I]NaI with lactoperoxidase (protein, UniProt P39905 78-211, looked up)
# Glial cell line-derived …: SPDKQMAVLPRRERNRQAAAANPENSRGKGRRGQRGKNRGCVLTAIHLNVTDLGLGYETKEELIFRYCSGSCDAAETTYDKILKNLSRNRRLVSDKVGQACCRPIAFDDDLSFLDDNLVYHILRKHSAKRCGCI
# modifications: 125I label
# notes: GDNF enzymatically iodinated with [125I]NaI with lactoperoxidase
# B2: PSPN: persephin, the ligand for GFRα4, not known to interact with GFRα1 (protein, UniProt O60542 22-156, looked up)
# Persephin: WGPDARGVPVADGEFSSEQVAKAGGTWLGTHRPLARLRRALSGPCQLWSLTLSVAELGLGYASEEKVIFRYCAGSCPRGARTQHGLALARLQGQGRAHGGPCCRPTRYTDVAFLDDRHRWQRLPQLSAAACGCGG
# Legend:
# wild-type MDCK cells [1] = assay: Branching tubule formation assay in 3-D collagen gel; format: cell-based, dog; settings: 3-D collagen gel
# Protocol: (§1) From the total amount of cysts in the field, the percentage of cysts with long branches was calculated. Only branches with lengths of more than two cyst diameters were counted.
# (§2) Trypsinized cells were mixed 1:3 with collagen type I solution and plated. MEM with 10% FCS was overlaid on the gels with or without GDNF (Cephalon Inc. or R&D Systems, Inc.) or 50 ng/ml HGF. Cells in collagen were cultured for 3 days; GDNF-containing medium was changed daily. For quantification, cells were cultured for 3 days, fixed by 3% glutaraldehyde in PBS and counted under a light microscope.
# (§3) To avoid the effect of possible contamination of GDNF preparation, recombinant GDNF from two different sources were tested. One tested GDNF was expressed in baculovirus-infected insect cells (Cephalon Inc.), the other was expressed in mouse myeloma cell line NSO (R&D Systems, Inc.).
# wild-type MDCK cells [2] = settings: Stoker et al., 1987; cited from earlier work
# MET [3] = target: MET (Homo sapiens, UniProt P08581); settings: Villa-Moruzzi et al., 1993; cited from earlier work
# MET [4] = assay: MET phosphorylation in MDCK cells (immunoprecipitation, Western blotting); format: cell-based, dog
# Protocol: (§4) To detect MET activation, GFRα1- and RET/GFRα1-expressing MDCK or SHEP cells were starved overnight in MEM or RPMI 1640 with 1% FCS, respectively, and in serum-free medium for 2 h prior the induction. After 15 min incubation at 37° C. with GDNF (at indicated concentrations) or with 50 ng/ml HGF, cells were lysed as described. Cleared cell lysates were incubated with anti-MET antibodies (Santa Cruz Biotechnologies, Inc.) overnight at 4° C. Immunoprecipitates were collected with protein A-SEPHAROSE (Amersham Pharmacia Biotech), washed, separated by SDS-PAGE and transferred to HYBOND-ECL membranes. Membranes were immunoblotted with anti-phospho-tyrosine antibodies (Upstate Group Inc.) or anti-MET antibodies.
# Alternatively, 30 μg of protein was incubated overnight at 4° C. with 10 μl Immobilized Phospho-Tyrosine Monoclonal Antibodies (Cell Signalling, NEB). Immunocomplexes were washed and analysed as described.
# (§5) For all experiments, densitometry and quantifications were performed using TINA 2.0 program (Raytest, Straubenhardt, Germany).
# (§6) For the inhibition of MET, and Src activation, SHEP or GFRα1- and RET/GFRα1-expressing MDCK cells were starved as described above. 1 or […] of the inhibitor PP2 (Calbiochem) was added 30 min before induction by GDNF or HGF. DMSO (dimethyl sulfoxide) was added to the positive controls together with GDNF or HGF.
# MET [5] = target: T1, MET (Chlorocebus aethiops, UniProt Q2IBA6); assay: 125I-labelled GDNF and HGF binding, chemical crosslinking, anti-MET immunoprecipitation
# T1 construct: different combinations of the MET β-subunit (140 kDa), Met-αβ heterodimer (190 kDa) and HGF complexes; endogenous in cells; host or cells: COS7 cells (wild type for 125I-HGF; transfected with pc3-GFRα1/GFP for 125I-GDNF)
# Protocol: Binding of ^125I-GDNF to COS7 cells transfected with GFRα1, and ^125-HGF to wild-type COS7, followed by cross-linking with EDC together with sulfo-NHS. Inmunoprecipitates with anti-MET antibodies (IP-Met) were analysed by SDS-PAGE under reducing conditions. ^125I-HGF α subunit and proHGF are marked by arrows. ^125I-HGF/MET complexes are denoted by arrow heads. The results are representative of five independent experiments.
# GDNF and HGF were enzymatically iodinated with [^125I]NaI (Amersham Pharmacia Biotech) with lactoperoxidase to a specific activity of 100.000 cpm/ng as described (31). COS7 cells were transfected with pc3-GFRα1/GFP two days prior the assay. 2 nM of ^125I-GDNF or 1 nM of ^125I-HGF were allowed to bind to cell monolayers for 1-2 h on ice in binding buffer (DMEM/15 mM HEPES, pH 7.5; 0.2% BSA), washed, and chemically cross-linked for 30 min at room temperature using BS^3 ([Bis(sulfosuccinimidyl)suberate]), DSS ((Disulfosuccinimidyl)suberate), DSP (3,3-Dithio-bis-(sulfosuccinimidyl)propionate) or EDC ((1-Ethyl-3-[3-dimethylaminopropyl]carbodiimide Hydrochloride)) with sulfo-NHS (N-Hydroxysulfosuccinimide) (Pierce). The non-specific binding of GDNF was estimated by the amount of ^125I-GDNF binding to cells in the presence of 300 n M unlabeled GDNF. Cells were washed, lysed and immunoprecipitated with anti-MET antibodies as described. Gels were dried and analyzed by phosphorimaging in a BAS Reader 1800 (Fuji).
# MET [6] = assay: MET phosphorylation in SHEP neuroblastoma cells; format: cell-based, human; settings: SHEP cells
# Protocol: FIG. 7B: SHEP cells were grown with GDNF (10 ng/ml (lanes 2-4) or 5 pg/ml (lanes 5-7)) or HGF (10 ng/ml (lanes 8-9)) in the presence of PP2 (1 μM (lanes 3 and 6) and 10 μM (lanes 4 and 7)). To exclude a possible cytotoxic effect of the solvent, DMSO was added to the controls. […] The numbers below the lane indicate the fold of induction of MET tyrosine kinase. The results are representative of three independent experiments.
# as §4, §5, §6
# [7] = system: RET/GFRα1-expressing MDCK cells; assay: Branching tubule formation assay in 3-D collagen gel; format: cell-based, dog; settings: ligand 100 ng/ml; 3-D collagen gel
# Protocol: as §1
# (§7) FIG. 2C: Dose-dependence of GDNF-induced branching of GFRα1- and RET/GFRα1-expressing MDCK cells. GDNF concentrations are per ml (x-axis). Results are reported as fold of branching cysts count over the non-induced control. Means±standard errors of the mean of five to eight counted fields are shown. The results are representative of five (A and B) and three (C) independent experiments, p<0.001.
# as §2, §3
# [8] = system: GFRα1-expressing MDCK cells; assay: as above; format: cell-based, dog; settings: ligand 100 ng/ml; 3-D collagen gel
# Protocol: as §1, §7, §2, §3
# [9] = GFRα1- and RET/GFRα1-expressing MDCK cells, data not shown
# T1 sequence (Q2IBA6 25-1381): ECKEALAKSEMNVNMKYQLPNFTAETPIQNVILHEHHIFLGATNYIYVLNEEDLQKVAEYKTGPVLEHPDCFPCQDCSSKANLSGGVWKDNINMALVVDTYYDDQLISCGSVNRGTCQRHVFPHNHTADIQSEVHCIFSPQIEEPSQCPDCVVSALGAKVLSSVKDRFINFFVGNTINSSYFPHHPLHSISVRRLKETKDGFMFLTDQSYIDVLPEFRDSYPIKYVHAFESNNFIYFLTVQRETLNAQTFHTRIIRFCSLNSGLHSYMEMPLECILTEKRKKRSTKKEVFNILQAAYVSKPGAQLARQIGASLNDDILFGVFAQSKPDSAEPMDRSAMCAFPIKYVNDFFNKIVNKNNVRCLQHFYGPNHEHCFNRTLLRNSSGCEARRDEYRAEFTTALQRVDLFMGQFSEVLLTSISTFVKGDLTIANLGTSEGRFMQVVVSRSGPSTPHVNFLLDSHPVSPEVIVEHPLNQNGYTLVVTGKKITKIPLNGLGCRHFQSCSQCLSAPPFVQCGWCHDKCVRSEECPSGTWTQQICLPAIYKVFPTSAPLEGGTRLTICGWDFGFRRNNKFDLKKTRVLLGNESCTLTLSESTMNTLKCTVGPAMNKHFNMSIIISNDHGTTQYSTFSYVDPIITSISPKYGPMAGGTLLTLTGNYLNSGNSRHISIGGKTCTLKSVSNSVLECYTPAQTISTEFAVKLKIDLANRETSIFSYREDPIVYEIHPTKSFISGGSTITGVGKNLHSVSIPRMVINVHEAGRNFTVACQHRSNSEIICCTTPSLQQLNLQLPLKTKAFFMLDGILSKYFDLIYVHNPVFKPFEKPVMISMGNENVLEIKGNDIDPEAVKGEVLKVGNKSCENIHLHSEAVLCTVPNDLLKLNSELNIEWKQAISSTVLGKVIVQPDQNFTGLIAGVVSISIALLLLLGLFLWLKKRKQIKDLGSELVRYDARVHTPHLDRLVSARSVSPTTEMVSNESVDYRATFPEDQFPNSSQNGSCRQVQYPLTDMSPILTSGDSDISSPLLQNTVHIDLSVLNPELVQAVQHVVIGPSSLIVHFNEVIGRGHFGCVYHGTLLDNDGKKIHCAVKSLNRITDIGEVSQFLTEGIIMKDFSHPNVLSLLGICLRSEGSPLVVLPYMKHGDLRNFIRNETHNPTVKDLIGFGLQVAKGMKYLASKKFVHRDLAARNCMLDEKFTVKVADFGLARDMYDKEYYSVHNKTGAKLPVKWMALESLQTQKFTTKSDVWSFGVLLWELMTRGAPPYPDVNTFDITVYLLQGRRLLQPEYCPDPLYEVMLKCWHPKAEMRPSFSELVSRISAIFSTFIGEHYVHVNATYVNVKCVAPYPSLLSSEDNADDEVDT
# Sequence of MET (Homo sapiens, UniProt P08581) (P08581 25-1390): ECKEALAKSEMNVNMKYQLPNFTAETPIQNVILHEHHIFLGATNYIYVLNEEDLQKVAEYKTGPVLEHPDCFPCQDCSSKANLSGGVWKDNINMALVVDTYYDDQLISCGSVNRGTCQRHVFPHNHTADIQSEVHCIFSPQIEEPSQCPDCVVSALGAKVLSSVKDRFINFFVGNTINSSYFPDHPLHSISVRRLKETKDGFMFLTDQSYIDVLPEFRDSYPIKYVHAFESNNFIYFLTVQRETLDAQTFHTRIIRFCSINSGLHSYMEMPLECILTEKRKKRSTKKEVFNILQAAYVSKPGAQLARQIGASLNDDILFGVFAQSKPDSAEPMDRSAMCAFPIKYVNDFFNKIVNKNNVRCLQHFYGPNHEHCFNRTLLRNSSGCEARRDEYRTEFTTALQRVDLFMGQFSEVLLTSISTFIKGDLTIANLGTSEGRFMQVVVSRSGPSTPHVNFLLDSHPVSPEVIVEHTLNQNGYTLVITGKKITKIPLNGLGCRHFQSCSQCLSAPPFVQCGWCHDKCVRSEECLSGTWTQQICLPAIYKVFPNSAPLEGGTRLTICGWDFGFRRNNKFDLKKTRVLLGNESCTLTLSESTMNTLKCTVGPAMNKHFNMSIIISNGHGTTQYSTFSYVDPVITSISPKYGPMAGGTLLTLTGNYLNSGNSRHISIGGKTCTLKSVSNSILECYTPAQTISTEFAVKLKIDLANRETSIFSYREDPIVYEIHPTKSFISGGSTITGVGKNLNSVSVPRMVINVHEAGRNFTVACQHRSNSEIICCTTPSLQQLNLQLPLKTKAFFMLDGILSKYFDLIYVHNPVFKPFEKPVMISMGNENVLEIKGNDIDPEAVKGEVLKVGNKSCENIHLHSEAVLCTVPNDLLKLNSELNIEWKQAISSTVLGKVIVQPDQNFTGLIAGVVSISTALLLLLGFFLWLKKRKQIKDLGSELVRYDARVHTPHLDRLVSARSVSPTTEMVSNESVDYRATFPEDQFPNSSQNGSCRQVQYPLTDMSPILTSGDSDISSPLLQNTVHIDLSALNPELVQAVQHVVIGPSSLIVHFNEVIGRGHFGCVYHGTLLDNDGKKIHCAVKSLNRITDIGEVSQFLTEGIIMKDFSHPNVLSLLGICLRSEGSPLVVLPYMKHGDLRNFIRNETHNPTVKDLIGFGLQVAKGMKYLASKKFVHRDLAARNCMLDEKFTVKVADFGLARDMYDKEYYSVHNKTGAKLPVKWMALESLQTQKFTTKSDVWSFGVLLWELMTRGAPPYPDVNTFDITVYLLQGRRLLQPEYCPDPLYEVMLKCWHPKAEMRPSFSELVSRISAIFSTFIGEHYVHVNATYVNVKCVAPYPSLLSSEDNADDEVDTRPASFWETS
molecule,measurement,setting,value
HGF: hepatocyte growth factor (Sigma); binds to and activates MET receptor tyrosine kinase,branching tubule formation,wild-type MDCK cells [1]; HGF 50 ng/ml,only branch on exposure to HGF
same,chemotaxis,wild-type MDCK cells [2],induces chemotaxis
same,concentration at which MET is saturated,MET [3],0.5 nM
same,MET phosphorylation,MET [4]; mock-transfected MDCK cells,only HGF phosphorylated MET
^125I-HGF: HGF enzymatically iodinated with [125I]NaI with lactoperoxidase [reference compound],cross-linked complexes with MET,"MET [5]; COS7 cells, reducing conditions, positive control","approximately 200 kDa, 250 kDa and 340 kDa complexes"
"CC(C)(C)n1nc(-c2ccc(Cl)cc2)c2c(N)ncnc21 [PP2, reference compound]",effect on GDNF-dependent phosphorylation of MET,MET [6]; PP2 1 μM,strongly reduced
same,effect on HGF-induced MET phosphorylation,MET [6],did not affect
same,effect on GDNF-induced MET activation,MET [4]; [9],inhibited
same,effect on HGF-induced MET phosphorylation,MET [4]; [9],but not the HGF-induced MET phosphorylation
B1,cross-linked complexes with MET,"MET [5]; GFRα1-expressing MDCK, SHEP or COS7 cells, and NIH 3T3 cells transiently transfected with GFRα1, EDC with sulfo-NHS, BS3, DSS, DSP",No high molecular weight complexes were revealed
B2,branching tubule formation,wild-type MDCK cells [1]; ligand 100 ng/ml,does not induce branching
same,branching tubule formation,[7],did not evoke branching
same,branching tubule formation,[8],did not evoke branching
